The test system of series [1] is T-cells. Briefly: in vitro cytotoxicity test (MTT assay). The class given is cell-based. To be noted: compared with cynarin, FIG. 5. Here is the method: The amount of survival T-cells is measured by MTT assay. […] Conversely, they are less cytotoxic than cynarin.
(Tetrazolium dyes change colour on reduction, which living cells bring about.)

Series [2] relates to T-cells. Put plainly: in vitro efficacy test: production of IL-2 from T-cells. To be noted: compared with cynarin; FIG. 6. The class given is cell-based. The source says:
The production of IL-2 is reduced when the activation of T-cells is interfered.

Series [3] addresses CD28 of T-cells and CD80 of B-cells (Homo sapiens, UniProt P10747). Put plainly: unbinding force test. The class given is binding. To be noted: in the presence of Cyn-1324; about 41.9 pN in its absence; FIG. 7. From the text:
In the absence of Cyn-1324, the average unbinding force is about 41.9 pN. Conversely, in the presence of Cyn-1324, the average unbinding force is reduced to about 29.1 pN. The results shown in FIG. 7 provide the physical evidence that Cyn-1324 repulses the binding between CD28 and CD80, thus blocking the signal 2 pathway induced by the interaction of CD28 and co-stimulatory molecules such as CD80 or CD86.

Series [4] relates to IL-2 expressed from signal 2 pathway of T-cells. Briefly: in vitro IC50 measurement (reduction of IL-2). Format: cell-based. To be noted: T-cell; dosage causing 50% reduction of IL-2; FIG. 8; read-out: IC50 on blocking T-cell immune response. From the text: The IC50 represents the dosage which causes 50% reduction of IL-2 expressed from signal 2 pathway of T-cells.
The subject of series [5] is OVA-sensitized mice. Briefly: in vivo animal test of immuno-suppressive effect (serum antibodies via ELISA). To be noted: OVA-sensitized BALB/c mice, serum on 14th day, FIG. 9. The protocol:
The four BALB/c mice groups are treated with phosphate-buffered saline (PBS), ovalbulmin (OVA), OVA/Cyn-1324 or OVA/cyclosporin A (CSA), respectively. CSA is used currently in clinics for suppressing immune response. The 14th-day from the treatments, the serum is collected, and the antibodies such as IgG and IgE are analyzed via ELISA. […] Accordingly, Cyn-1324 is effective for suppressing immune response.

The conditions of series [6]: mouse, in vivo. The protocol: One of the four mice groups is treated with PBS, and three of the four groups are sensitized with OVA.
Series [7] is described as follows: single dose toxicity test. To be noted: mouse, in vivo, mice, read-out: maximum tolerance dose (MTD).
The test system of series [8] is OVA-sensitized mice. To be noted: mouse, in vivo.

As a reminder, the IC50 is the midpoint of a concentration-inhibition curve. The term MTD denotes the highest dose tested that stayed within the study's limit of toxicity.

Each structure is given as a SMILES string. Converted amounts (≈) assume the structure as drawn. “Also recorded” adds a separate entry of the source.

Sequence of CD28 of T-cells and CD80 of B-cells (P10747 19-220): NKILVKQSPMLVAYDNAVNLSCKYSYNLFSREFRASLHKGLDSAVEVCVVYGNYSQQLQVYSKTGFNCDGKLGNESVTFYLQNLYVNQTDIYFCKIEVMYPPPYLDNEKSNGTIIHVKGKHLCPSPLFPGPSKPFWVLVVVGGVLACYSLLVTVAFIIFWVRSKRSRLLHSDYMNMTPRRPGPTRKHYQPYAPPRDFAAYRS

Take `CC(C)CNC(=O)[C@@]1(O)C[C@@H](O)[C@@H]2OC3(CCCCC3)O[C@@H]2C1` [Cyn-1324, (3aR,5R,7R,7aS)-5,7-dihydroxy-N-(2-methylpropyl)hexahydrospiro[1,3-benzodioxole-2,1′-cyclohexane]-5-carboxamide]: the “cell survival rates of T-cells (cytotoxicity)” value in the series on T-cells [1] is reported as “higher than cynarin; also recorded: lowest cytotoxicity”. Besides, the “efficacy to suppress T-cell activation (production of IL-2)” value in the series on T-cells [2] was “higher (or equal) efficacy; also recorded: high efficacy”. Moreover, the average unbinding force result in series [3] was “about 29.1 pN”. The IC50 in series [4] was ~20 µg/mL (≈ 61.1 µM). For the same compound, in the series on OVA-sensitized mice [5], the IgE decrease result is given as “about 23%” and the IgG decrease entry was “about 30%”. In addition, the “body weight variation versus time” value in series [6] is “steadily increased”. In addition, the MTD in series [7] was ~400 mg/kg. In the series on OVA-sensitized mice [8], the “side effect: body swollen” value is “does not cause the similar side effect”.
